Data as given in patent US6399583B1, “Hybrid anthracyclines from genetically engineered streptomyces galilaeus strains, process for production and uses thereof” (Galilaeus Oy, priority 1998, dated 2002).

Test system: L1210 mouse lymphocytic leukemia cells
Test: Flow cytometry (mode of action), cell cycle phases
Type: cell-based
Settings: for G1 (%) / G2 (%) / S + M (%) / Cells (1000/ml): L1210 cells, 24 h incubation; for G1 (%): percentage of cells in phase G1; for G2 (%): percentage of cells in phase G2; for S + M (%): percentage of cells in phases S + M; for Cells (1000/ml): starting cell number 46000 cells/ml
Method: L1210 mouse lymphocytic leukemia cells growing in suspension culture were maintained at exponential growth in Dulbecco's modified Eagle's medium with 4.5 g/l glucose and 10% FBS, at 37° C. with 5% CO2. The experiments were started by adding the ethanol-dissolved anthracyclines, in amounts yielding to the appropriate final concentrations, to 25 cm^2 cell culture flasks. After the ethanol had evaporated, 5 ml of an approximately 50 000 cells per ml suspension was added to the flasks. Flow cytometric analysis was made of the original cell suspension and after one, two and three days incubation with or without the drugs.
Cells were prepared for flow cytometric DNA analysis according to the method of Vindelov et al. (1985). The analysis was performed with an Epics XL flow cytometer (Coulter Corporation, Miami, Fla.). Samples were illuminated with a […] air-cooled argon ion laser (488 nm) and the fluorescence of propidium iodide was detected through 620-nm band pass filter. The number of cells in each sample was separately counted by adding an internal calibrator (50 μl of a solution containing 1×10^6 Fluoresbrite beads/ml) to 50 μl of cell suspension.
Based on the flow cytometric studies, the cell cycle phases for the cells studied could be detected. Phase G1 is the stage for RNA and protein synthesis, but not for replication. Transition from phase G1 to phase S means the initiation of replication, and the phase will last until all of the DNA has been replicated. The period from phase S up to mitosis (M) is phase G2.

Row | Structure (SMILES) | G1 (%) (concentration 1 × 10^−8M) | G2 (%) (concentration 1 × 10^−8M) | S + M (%) (concentration 1 × 10^−8M) | Cells (1000/ml) (concentration 1 × 10^−8M) | G1 (%) (concentration 3.3 × 10^−8M) | G2 (%) (concentration 3.3 × 10^−8M) | S + M (%) (concentration 3.3 × 10^−8M) | Cells (1000/ml) (concentration 3.3 × 10^−8M) | cell cycle phase in which cells are arrested (flow cytometric DNA analysis)
1 | CCC1(O)CC(OC2CC(N(C)C)C(OC3CC(O)C(OC4CC(O)C(O)C(C)O4)C(C)O3)C(C)O2)c2c(O)c3c(c(O)c2C1C(=O)OC)C(=O)c1cccc(O)c1C3=O (centres unmarked) [Compound H075-4a] | 40 | 12 | 48 | 88 1000/ml | 45 | 19 | 36 | 67 1000/ml | arrested the cells in phase G1
2 | COc1cccc2c1C(=O)c1c(O)c3c(c(O)c1C2=O)C[C@@](O)(C(C)=O)C[C@@H]3O[C@H]1C[C@H](N)[C@H](O)[C@H](C)O1 [Daunorubicin] | 11 | 38 | 51 | 66 1000/ml | 6 | 66 | 27 | 23 1000/ml | –
